{"source": "patent US20080234646A1", "about": "“Odour-Preventing, Water-Absorbing Compositions” (priority 2005, published 2008)", "molecular_target": "T1, urease (from jack beans) (Canavalia ensiformis, UniProt P07374)", "T1 construct": "urease (from jack beans); lyophilized 5 U/mg for urea assay in serum; purchased Merck KGaA, Germany; host or cells: jack beans (natural source)", "T1 sequence (P07374 whole entry, looked up, the tested form may be a part)": "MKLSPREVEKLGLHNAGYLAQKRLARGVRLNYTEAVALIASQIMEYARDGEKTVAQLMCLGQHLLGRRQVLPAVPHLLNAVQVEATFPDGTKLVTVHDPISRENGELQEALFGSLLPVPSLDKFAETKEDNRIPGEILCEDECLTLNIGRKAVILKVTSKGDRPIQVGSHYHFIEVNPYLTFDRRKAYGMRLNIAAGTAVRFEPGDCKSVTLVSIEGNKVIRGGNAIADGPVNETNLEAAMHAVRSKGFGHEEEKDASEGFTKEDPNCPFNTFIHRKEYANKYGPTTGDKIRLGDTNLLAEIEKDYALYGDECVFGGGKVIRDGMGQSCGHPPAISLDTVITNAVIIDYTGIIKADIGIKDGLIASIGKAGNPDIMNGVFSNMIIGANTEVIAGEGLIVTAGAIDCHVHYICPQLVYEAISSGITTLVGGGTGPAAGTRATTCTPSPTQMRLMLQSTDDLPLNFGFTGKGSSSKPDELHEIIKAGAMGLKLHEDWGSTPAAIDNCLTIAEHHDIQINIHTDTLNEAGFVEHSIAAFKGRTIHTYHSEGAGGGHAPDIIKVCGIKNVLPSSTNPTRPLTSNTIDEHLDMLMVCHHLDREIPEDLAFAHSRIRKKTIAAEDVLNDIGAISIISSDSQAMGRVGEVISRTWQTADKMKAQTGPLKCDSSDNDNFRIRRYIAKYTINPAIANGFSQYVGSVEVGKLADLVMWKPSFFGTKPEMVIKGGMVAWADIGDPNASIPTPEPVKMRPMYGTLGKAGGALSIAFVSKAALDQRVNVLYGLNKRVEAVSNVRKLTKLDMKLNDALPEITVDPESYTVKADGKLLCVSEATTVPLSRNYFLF", "assay": "odor-preventing effect: ammonia release from urea/urease solution, read with a diffusion tube", "assay_type": "biochemical", "conditions": "2 g composition, 30 mg urease, 50 ml 0.9% NaCl with 8.56 g/l urea, 23° C.", "description": "100 g lots of water-absorbing polymer from Example 1 were mixed in a tumble mixer with different amounts of N-cyclohexylthiophosphoramide, N-(n-butyl)thiophosphoramide or N-(n-propyl)thiophosphoramide, for 20 minutes each.\nTo determine the odor-preventing effect, 2 g of each of the compositions produced above were placed in a 100 ml Erlenmeyer flask and admixed with a freshly prepared solution of 30 mg of urease (from jack beans; lyophilized 5 U/mg for urea assay in serum; Merck KGaA, Germany) and 50 ml of 0.9% sodium chloride solution, the sodium chloride solution containing 8.56 g/l of urea, and sealed with a stopper having an internal diffusion tublet (Drager® Röhrchen; ammonia 20/a-D, 20 to 1500 ppm*h). The measured value was read off every 30 minutes. The measurement was discontinued after 6 hours. The test was carried out at 23° C.", "key": {"[1]": {"conditions": "0.01 % by weight substituted thiophosphoramide in composition with water-absorbing polymer"}, "[2]": {"conditions": "0.05 % by weight substituted thiophosphoramide in composition with water-absorbing polymer"}, "[3]": {"conditions": "0.15 % by weight substituted thiophosphoramide in composition with water-absorbing polymer"}, "[4]": {"conditions": "0.25 % by weight substituted thiophosphoramide in composition with water-absorbing polymer"}, "[5]": {"conditions": "0.35 % by weight substituted thiophosphoramide in composition with water-absorbing polymer"}, "[6]": {"conditions": "0.50 % by weight substituted thiophosphoramide in composition with water-absorbing polymer"}, "[7]": {"conditions": "1.50 % by weight substituted thiophosphoramide in composition with water-absorbing polymer"}}, "data": [{"smiles": "CCCCNP(N)(N)=S", "note": "[R = n-butyl, N-(n-butyl)thiophosphoramide]", "values": [{"measurement": "ammonia after 6 hours", "setting": "[1]", "value": "+ (less than 50 ppm of ammonia after 6 hours)"}, {"measurement": "ammonia after 6 hours", "setting": "[2]", "value": "+ (less than 50 ppm of ammonia after 6 hours)"}, {"measurement": "ammonia after 6 hours", "setting": "[3]", "value": "+ (less than 50 ppm of ammonia after 6 hours)"}, {"measurement": "ammonia after 6 hours", "setting": "[4]", "value": "+ (less than 50 ppm of ammonia after 6 hours)"}, {"measurement": "ammonia after 6 hours", "setting": "[5]", "value": "+ (less than 50 ppm of ammonia after 6 hours)"}, {"measurement": "ammonia after 6 hours", "setting": "[6]", "value": "+ (less than 50 ppm of ammonia after 6 hours)"}, {"measurement": "ammonia after 6 hours", "setting": "[7]", "value": "+ (less than 50 ppm of ammonia after 6 hours)"}]}, {"smiles": "CCCNP(N)(N)=S", "note": "[R = n-propyl, N-(n-propyl)thiophosphoramide]", "values": [{"measurement": "ammonia after 6 hours", "setting": "[1]", "value": "+ (less than 50 ppm of ammonia after 6 hours)"}, {"measurement": "ammonia after 6 hours", "setting": "[2]", "value": "+ (less than 50 ppm of ammonia after 6 hours)"}, {"measurement": "ammonia after 6 hours", "setting": "[3]", "value": "+ (less than 50 ppm of ammonia after 6 hours)"}, {"measurement": "ammonia after 6 hours", "setting": "[4]", "value": "+ (less than 50 ppm of ammonia after 6 hours)"}, {"measurement": "ammonia after 6 hours", "setting": "[5]", "value": "+ (less than 50 ppm of ammonia after 6 hours)"}, {"measurement": "ammonia after 6 hours", "setting": "[6]", "value": "+ (less than 50 ppm of ammonia after 6 hours)"}, {"measurement": "ammonia after 6 hours", "setting": "[7]", "value": "+ (less than 50 ppm of ammonia after 6 hours)"}]}, {"smiles": "NP(N)(=S)NC1CCCCC1", "note": "[R = cyclohexyl, N-cyclohexylthiophosphoramide, reference compound]", "values": [{"measurement": "ammonia after 6 hours", "setting": "[1]", "value": "− (more than 50 ppm of ammonia after 6 hours)"}, {"measurement": "ammonia after 6 hours", "setting": "[2]", "value": "− (more than 50 ppm of ammonia after 6 hours)"}, {"measurement": "ammonia after 6 hours", "setting": "[3]", "value": "− (more than 50 ppm of ammonia after 6 hours)"}, {"measurement": "ammonia after 6 hours", "setting": "[4]", "value": "− (more than 50 ppm of ammonia after 6 hours)"}, {"measurement": "ammonia after 6 hours", "setting": "[5]", "value": "+ (less than 50 ppm of ammonia after 6 hours)"}, {"measurement": "ammonia after 6 hours", "setting": "[6]", "value": "+ (less than 50 ppm of ammonia after 6 hours)"}, {"measurement": "ammonia after 6 hours", "setting": "[7]", "value": "+ (less than 50 ppm of ammonia after 6 hours)"}]}]}
